Assays:
Assay in all cases: selective drug sensitivity score (sDSS, relative to normal bone marrow) (sDSS (score)); higher = more potent and effective on the cell line relative to normal bone marrow cells
Details in all cases: 72 h
697 = test system: 697
COG-LL-355h = test system: COG-LL-355h
SEM cells = test system: SEM cells
LC4-1 = test system: LC4-1
MHH-CALL-4 = test system: MHH-CALL-4
TMD5 = test system: TMD5
CCRF-HSB2 = test system: CCRF-HSB2
KASUMI-2 = test system: KASUMI-2
HPB-ALL = test system: HPB-ALL
MHH-CALL-2 = test system: MHH-CALL-2
ALL-PO = test system: ALL-PO
KASUMI-9 = test system: KASUMI-9
COG-LL-332h = test system: COG-LL-332h
COG-LL-402h = test system: COG-LL-402h
MOLT-4 = test system: MOLT-4
HAL-01 = test system: HAL-01
RCH-ACV = test system: RCH-ACV
MOLT-16 = test system: MOLT-16
KOPN-8 = test system: KOPN-8
KASUMI-10 = test system: KASUMI-10
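Note: ALL cell lines in 384-well plates, five doses spanning 10,000-fold, each plate scaled between vehicle and 100 µmol/L benzalkonium chloride controls, sDSS an adapted area-under-curve metric.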

| Structure (SMILES) | selective drug sensitivity score 697 | selective drug sensitivity score (COG-LL-355h) | selective drug sensitivity score (SEM cells) | selective drug sensitivity score (LC4-1) | selective drug sensitivity score (MHH-CALL-4) | selective drug sensitivity score (TMD5) | selective drug sensitivity score (CCRF-HSB2) | selective drug sensitivity score (KASUMI-2) | selective drug sensitivity score (HPB-ALL) | selective drug sensitivity score (MHH-CALL-2) | selective drug sensitivity score (ALL-PO) | selective drug sensitivity score (KASUMI-9) | selective drug sensitivity score (COG-LL-332h) | selective drug sensitivity score (COG-LL-402h) | selective drug sensitivity score (MOLT-4) | selective drug sensitivity score (HAL-01) | selective drug sensitivity score (RCH-ACV) | selective drug sensitivity score (MOLT-16) | selective drug sensitivity score (KOPN-8) | selective drug sensitivity score (KASUMI-10) |
| --- | --- | --- | --- | --- | --- | --- | --- | --- | --- | --- | --- | --- | --- | --- | --- | --- | --- | --- | --- | --- |
| CNC(=O)c1ccc(-c2cnc3ncc(Cc4ccc5ncccc5c4)n3n2)cc1F [Capmatinib] (top concentration 1000 nM) | -0.06 | 0.04 | -0.06 | 0.64 | -0.06 | -0.06 | -0.06 | -0.06 | -0.06 | -0.06 | -0.06 | -0.06 | -0.06 | 0.74 | -0.06 | 2.34 | -0.06 | 0.04 | -0.06 | -0.06 |
| COc1cc2c(Oc3ccc4[nH]c(C)cc4c3F)ncnc2cc1OCCCN1CCCC1 [Cediranib] (top concentration 1000 nM) | 0.9 | 0 | 0.2 | 0 | 0 | 3.6 | 3.4 | 0 | 0 | 7.2 | 0 | 3.6 | 0 | 0 | 0.1 | 5.7 | 0 | 0 | 0 | 0 |
| CCN(CC)CCCC(C)Nc1ccnc2cc(Cl)ccc12 (stereo not given) [Chloroquine] (top concentration 100000 nM) | -2.14 | -0.34 | -0.74 | -3.74 | -1.44 | -4.54 | -2.34 | -8.14 | -6.64 | 1.06 | -1.64 | -1.94 | -0.64 | -3.94 | -7.24 | 0.36 | -0.14 | -3.14 | -1.14 | -4.24 |
| C[C@@H](Oc1cc(-c2cnn(C3CCNCC3)c2)cnc1N)c1c(Cl)ccc(F)c1Cl [Crizotinib] (top concentration 1000 nM) | -0.24 | 2.16 | -0.54 | -0.54 | -0.54 | 1.66 | 4.26 | -0.54 | -0.54 | -0.54 | 1.46 | -0.54 | 2.76 | -0.54 | -0.54 | -0.54 | -0.54 | -0.54 | -0.54 | -0.54 |
| COc1cc2ncnc(Nc3ccc(F)c(Cl)c3)c2cc1NC(=O)/C=C/CN1CCCCC1 [Dacomitinib] (top concentration 1000 nM) | -0.34 | 1.06 | 0.86 | -0.94 | 1.86 | 1.46 | 3.76 | -1.64 | -1.54 | 2.06 | 3.06 | 0.96 | -0.84 | 0.96 | -1.54 | 2.66 | 0.16 | -1.04 | -0.34 | -0.54 |
| CCN(CC)CCN(Cc1ccc(-c2ccc(C(F)(F)F)cc2)cc1)C(=O)Cn1c(SCc2ccc(F)cc2)nc(=O)c2c1CCC2 [Darapladib] (top concentration 1000 nM) | -1.42 | -1.42 | -1.42 | -1.42 | 2.68 | 6.98 | -0.52 | 0.98 | -1.42 | 3.68 | -1.42 | -1.32 | -0.92 | -1.42 | -1.42 | 0.58 | 7.28 | 3.28 | 7.18 | -1.22 |
| C[C@@H]1C[C@H]2[C@@H]3CCC4=CC(=O)C=C[C@]4(C)[C@@]3(F)[C@@H](O)C[C@]2(C)[C@@]1(O)C(=O)CO [Dexamethasone] (top concentration 10000 nM) | 32.2 | 30.7 | 10.9 | 12.5 | 36.7 | 14.9 | 18.8 | 14.6 | 3.18 | 28.9 | 43.2 | 1.78 | 1.88 | 29.3 | 1.48 | -1.42 | 38.8 | 9.68 | 33.9 | -1.52 |
| Cc1cc(C)c(CNC(=O)c2cc(-c3ccc(CN4CCOCC4)cc3)cc3c2cnn3C2CCCC2)c(=O)[nH]1 [EPZ-5687] (top concentration 10000 nM) | -0.36 | -0.36 | -0.36 | -0.36 | -0.36 | 5.74 | -0.06 | -0.36 | -0.36 | 5.14 | 0.24 | 3.14 | -0.36 | -0.36 | -0.36 | 3.24 | -0.36 | -0.36 | -0.36 | -0.36 |
| C=C1C[C@@H]2CC[C@@]34C[C@H]5O[C@H]6[C@@H](O3)[C@H]3O[C@H](CC[C@@H]3O[C@H]6[C@H]5O4)CC(=O)C[C@@H]3[C@@H](OC)[C@@H](C[C@H](O)CN)O[C@H]3C[C@H]3O[C@@H](CC[C@@H]1O2)C[C@@H](C)C3=C [Eribulin] (top concentration 1000 nM) | 19.5 | 4.4 | 22.1 | 24 | 5.6 | 12.5 | 22.8 | 15.5 | 13.2 | 15.8 | 16.3 | 24 | 20.6 | 17.3 | 23.3 | 4.6 | 25.4 | 28.6 | 27 | 20.2 |
| O=c1[nH]cc(F)c(=O)[nH]1 [Fluorouracil] (top concentration 10000 nM) | 3.46 | 1.76 | 2.76 | 5.16 | -0.14 | -0.64 | -0.64 | 1.56 | -0.24 | -0.04 | 8.56 | 3.26 | 4.26 | 3.36 | 2.76 | -0.44 | 2.96 | 6.36 | 2.96 | 2.96 |
| CC(C)C(=O)Nc1ccc([N+](=O)[O-])c(C(F)(F)F)c1 [Flutamide] (top concentration 10000 nM) | 1.94 | -0.56 | 2.44 | -0.46 | 1.24 | 6.64 | -0.46 | 0.34 | -0.56 | 9.74 | -0.56 | 1.64 | -0.56 | -0.56 | -0.46 | 3.94 | 0.14 | 0.34 | 4.24 | -0.56 |
| C[C@]12CC[C@@H]3c4ccc(O)cc4C[C@@H](CCCCCCCCC[S+]([O-])CCCC(F)(F)C(F)(F)F)[C@H]3[C@@H]1CC[C@@H]2O (stereo not given in full) [Fulvestrant] (top concentration 1000 nM) | 0 | 1.3 | 0 | 0 | 0 | 2.3 | 0 | 0 | 0.2 | 1.5 | 2.3 | 0 | 0 | 0 | 0 | 0 | 0 | 0 | 0 | 0 |
| CCCOc1ccn2c(C(C)=O)cc(-c3ccccc3S(C)(=O)=O)c2c1 [GSK2801] (top concentration 10000 nM) | -0.16 | -0.36 | -0.36 | 0.24 | -0.36 | -0.36 | -0.36 | 4.84 | -0.36 | -0.16 | 0.04 | -0.36 | 2.04 | -0.36 | -0.16 | -0.36 | 3.24 | -0.16 | 1.94 | -0.36 |
| Cc1cccc(-c2nn3c(c2-c2ccnc4ccc(C(N)=O)cc24)CCC3)n1 [Galunisertib] (top concentration 1000 nM) | 0 | 0 | 0.1 | 0 | 0 | 0 | 0 | 0 | 0 | 8.5 | 0 | 1.3 | 0 | 0 | 0 | 1.6 | 0 | 0 | 0 | 0 |
| O=C(O)CNC(=O)c1c(O)c2ccccc2n(Cc2ccccc2)c1=O [IOX-2] (top concentration 50000 nM) | 2.28 | -0.82 | -0.82 | -0.82 | -0.82 | -0.82 | -0.82 | 3.38 | 0.68 | 1.78 | -0.22 | -0.42 | -0.62 | -0.82 | -0.82 | -0.82 | 1.18 | -0.82 | 2.48 | -0.82 |
| C#Cc1cccc(Nc2ncnc3cc4c(cc23)OCCOCCOCCO4)c1 [Icotinib] (top concentration 10000 nM) | 3.2 | 0.1 | 3 | 3.2 | 0 | 7.5 | 2.6 | 2.9 | 0 | 4.8 | 0.7 | 4.9 | 0.3 | 0 | 0.2 | 1.2 | 1.2 | 2.2 | 5.7 | 0 |
| CC(C)Cn1cnc2c(N)nc3ccccc3c21 [Imiquimod] (top concentration 2500 nM) | 0.4 | 0.6 | 0 | 0.3 | 0.9 | 4.4 | 0.4 | 1.5 | 2.6 | 1.7 | 0.4 | 0.9 | 0 | 0 | 0 | 2.6 | 1.7 | 0.5 | 2.7 | 0 |
| N#Cc1ccnc(N2C(=O)CC[C@H]2C(=O)N(c2cncc(F)c2)[C@H](C(=O)NC2CC(F)(F)C2)c2ccccc2Cl)c1 [Ivosidenib] (top concentration 10000 nM) | 0.1 | 0 | 0 | 0 | 0 | 1.8 | 1.6 | 0.6 | 0 | 11.9 | 0 | 0.9 | 1 | 0 | 0.2 | 3.2 | 0 | 1 | 0.2 | 0 |
